From US5972946A, “Acetamide derivative, process for preparing the same, and a pharmaceutical composition containing the same” (Dainippon Pharmaceutical Co., Ltd., priority 1995, dated 1999) come the findings set out here.

Experiment [1] addresses peripheral (ω3) benzodiazepine (BZ) receptor (Rattus norvegicus, UniProt P16257). In words: BZω3 (peripheral-type) benzodiazepine receptor binding assay.
Experiment [2] in a line: Isoniazid-induced clonic convulsion test (anti-convulsant effect). Type of experiment: in vivo, mouse (Std-ddY, male). As to conditions: Mus musculus, 0.5 h; oral, 30 min before isoniazid 200 mg/kg s.c.; mice; read-out: Anti-isoniazid effect ED25 (dose which prolonged the onset time of clonic convulsion by 25%). The text has this: Experiment 3: Isoniazid-induced clonic convulsion test (anti-convulsant effect)
Isoniazid inhibits glutamate decarboxylase which catalyzes GABA synthesis, deases brain GABA levels, and induces clonic convulsion. According to the method of Auta, J. et al. [cf. J. Pharmacol. Exp. Ther. 265, 649-656 (1993)] with slight modification, we examined antagonistic effect of the test compounds on isoniazid-induced clonic convulsion. […] Those are BZ anxiolytics represented by diazepam, neurosteroids such as allopregnanolone, allotetrahydrodeoxycortico-sterone(THDOC) and BZω3 receptor agonists which enhance the synthesis of neurosteroids.
Male mice of Std-ddY strain weighing 22-24 g were used in a group of 6. Thirty minutes after oral administration of the test compounds, mice were injected with isoniazid (200 mg/kg, s.c.), and immediately thereafter, placed individually in acrylic observation cages. The onset time of clonic convulsion was measured (cut-off time: 90 minutes). The latency in the control group was about 40 minutes.
Anti-isoniazid effect of the test compounds was expressed as the dose which prolonged the onset time by 25% compared to that in the vehicle group (ED25). The ED25 value was calculated according to the Litchfield-Wilcoxon's method.

Take `CCCN(CCC)C(=O)CNc1nc(-c2ccc(F)cc2)nc(C)c1C` [Example 4]: in experiment [1], the IC50 (commonly the concentration needed to halve the response being measured) is 4.36 nM. In addition, the ED25 in experiment [2] was 51.2 mg/kg.

Molecule `CCCN(CCC)C(=O)CNc1nc(-c2ccc(OC)cc2)nc(C)c1C` [Example 5] came in with an IC50 in experiment [1] of 1.28 nM. Further, the ED25 in experiment [2] stood at 15.1 mg/kg.

For the molecule `CCN(CC)C(=O)CNc1nc(-c2ccc(F)cc2)nc(C)c1C` [Example 11], in experiment [2], the ED25 was determined as 47.5 mg/kg.

Consider `CCN(CC)C(=O)CNc1nc(-c2ccc(OC)cc2)nc(C)c1C` [Example 12], for which the ED25 in experiment [2] was 31.8 mg/kg.

Take `CCCN(CC)C(=O)CNc1nc(-c2ccccc2)nc(C)c1C` [Example 17]: the IC50 in experiment [1] is 1.97 nM. In experiment [2], the ED25 amounted to 45.7 mg/kg.

As for `Cc1nc(-c2ccc(F)cc2)nc(NCC(=O)N(C)c2ccccc2)c1C` [Example 25], the IC50 in experiment [1] turned out to be 1.93 nM. Besides, the ED25 in experiment [2] amounted to 62.1 mg/kg.

`CCN(C(=O)CNc1nc(-c2ccccc2)nc(C)c1C)c1ccccc1` [Example 44] displayed a concentration for half-maximal inhibition (IC50) in experiment [1] of 4.98 nM. Further, the ED25 in experiment [2] came out at 22.4 mg/kg.

Consider `CCN(C(=O)CNc1nc(-c2ccc(F)cc2)nc(C)c1C)c1ccccc1` [Example 47], for which the IC50 in experiment [1] amounted to 0.16 nM. Moreover, the ED25 in experiment [2] is 7.62 mg/kg.

As for `CCN(C(=O)CNc1nc(-c2ccc(OC)cc2)nc(C)c1C)c1ccccc1` [Example 48], in experiment [2], the ED25 came out at 7.67 mg/kg.

Turning to `CCN(C(=O)CNc1nc(-c2ccc([N+](=O)[O-])cc2)nc(C)c1C)c1ccccc1` [Example 50], the ED25 in experiment [2] was 27.3 mg/kg.

Consider `CCCN(C(=O)CNc1nc(-c2ccc(Cl)cc2)nc(C)c1C)c1ccccc1` [Example 53], for which the ED25 in experiment [2] came out at 11.3 mg/kg.

The molecule `C=CCN(C(=O)CNc1nc(-c2ccccc2)nc(C)c1C)c1ccccc1` [Example 58] gave an IC50 in experiment [1] of 1.62 nM. In experiment [2], the ED25 was determined as 11.8 mg/kg.

For `C=CCN(C(=O)CNc1nc(-c2ccc(Cl)cc2)nc(C)c1C)c1ccccc1` [Example 59], in experiment [2], the ED25 amounted to 14.8 mg/kg.

For the molecule `C=CCN(C(=O)CNc1nc(-c2ccc(OC)cc2)nc(C)c1C)c1ccccc1` [Example 60], in experiment [2], the ED25 is 2.14 mg/kg.

`Cc1nc(-c2ccccc2)nc(NCC(=O)N(CC2CC2)c2ccccc2)c1C` [Example 61] had an IC50 in experiment [1] of 9.8 nM. Besides, in experiment [2], the ED25 amounted to 17.7 mg/kg.

In turn, `Cc1nc(-c2ccccc2)nc(NCC(=O)N2CC(C)CC(C)C2)c1C` (stereo not shown) [Example 65, 3,5-Dimethyl-1-(5,6-dimethyl-2-phenyl-4-pyrimidinylamino)acetylpiperidine] had a 50% inhibitory concentration (IC50) in experiment [1] of 1.66 nM. The ED25 in experiment [2] was found to be 31.1 mg/kg.

On to `Cc1nc(-c2ccccc2)nc(NCC(=O)N2CC(C)OC(C)C2)c1C` (stereo not shown) [Example 66a, 2,6-Dimethyl-4-(5,6-dimethyl-2-phenyl-4-pyrimidinylamino)acetylmorpholine], for which the ED25 in experiment [2] was determined as 51.2 mg/kg.

With `Cc1nc(-c2ccccc2)nc(NCC(=O)N2C[C@@H](C)O[C@@H](C)C2)c1C` [Example 66b, cis-2,6-Dimethyl-4-(5,6-dimethyl-2-phenyl-4-pyrimidinylamino)acetylmorpholine], the ED25 in experiment [2] was 72.4 mg/kg.

Molecule `Cc1nc(-c2ccccc2)nc(N2CCCC2C(=O)N(C)c2ccc(Cl)cc2)c1C` (stereo not shown) [Example 79, N-(4-chlorophenyl)-N-methyl-1-(5,6-dimethyl-2-phenyl-4-pyrimidinyl)-2-pyrrolidinecarboxamide] displayed an IC50 in experiment [1] of 0.87 nM. Further, the ED25 in experiment [2] was found to be 43.8 mg/kg.

On to `CCCN(CCC)C(=O)CNc1nc(-c2ccccc2)nc(C)c1CC` [Example 83, 2-(5-ethyl-6-methyl-2-phenyl-4-pyrimidinylamino)-N,N-dipropylacetamide], for which the concentration for half-maximal inhibition (IC50) in experiment [1] stood at 5.02 nM. For the same molecule, in experiment [2], the ED25 came out at 70.2 mg/kg.

For `CCN(C(=O)COc1nc(-c2ccc(C(F)(F)F)cc2)nc(C)c1C)c1ccccc1` [Example 155], the IC50 in experiment [1] turned out to be 0.76 nM.

Consider `CCc1c(C)nc(-c2ccccc2)nc1OCC(=O)N(C)c1ccc(Cl)cc1` [Example 156], for which the IC50 in experiment [1] was 4.96 nM.

In turn, `CCCN(CCC)C(=O)COc1cc(-c2ccccc2)nc(-c2ccccc2)n1` [Example 158] gave an IC50 in experiment [1] of 4.07 nM.

Regarding `CCCN(CCC)C(=O)COc1nc(-c2ccccc2)nc(-c2ccccc2)c1C` [Example 159], the IC50 in experiment [1] is 2 nM.

In turn, `CCCN(CCC)C(=O)COc1cc(C(F)(F)F)nc(-c2ccccc2)n1` [Example 160] showed an IC50 in experiment [1] of 4.3 nM.

In experiment [1], `CCCN(CCC)C(=O)COc1nc(-c2ccccc2)nc2c1CCCC2` [Example 161] registered an IC50 of 1.05 nM.

In experiment [1], `CN(C(=O)COc1nc(-c2ccccc2)nc2c1CCCC2)c1ccc(Cl)cc1` [Example 162] had an IC50 of 1.19 nM.

Take `CN(C(=O)COc1nc(-c2ccc(Cl)cc2)nc2c1CCCC2)c1ccc(Cl)cc1` [Example 163]: in experiment [1], the IC50 was determined as 2.64 nM.

`CCN(C(=O)COc1nc(-c2ccc([N+](=O)[O-])cc2)nc(C)c1C)c1ccccc1` [Example 164, N-ethyl-2-[5,6-dimethyl-2-(4-nitrophenyl)-4-pyrimidinyloxy]-N-phenylacetamide] showed an IC50 in experiment [1] of 0.29 nM.

In experiment [1], `CCCN(CCC)C(=O)COc1cc(C)nc(-c2ccccc2)n1` [Example 166, 2-(6-methyl-2-phenyl-4-pyrimidinyloxy)-N,N-dipropylacetamide] came in with an IC50 of 5.4 nM.

`CCCN(CCC)C(=O)COc1nc(-c2ccccc2)nc(C)c1Cl` [Example 167, 2-(5-chloro-6-methyl-2-phenyl-4-pyrimidinyloxy)-N,N-dipropylacetamide] registered an IC50 in experiment [1] of 0.79 nM.

The molecule `CCCN(CCC)C(=O)COc1nc(-c2ccccc2)nc(C)c1Br` [Example 168, 2-(5-bromo-6-methyl-2-phenyl-4-pyrimidinyloxy)-N,N-dipropylacetamide] yielded a half-inhibitory concentration (IC50) in experiment [1] of 0.99 nM.

`CCCN(CCC)C(=O)C(C)Oc1nc(-c2ccccc2)nc2c1CCCC2` (stereo not shown) [Example 169, 2-(5,6,7,8-tetrahydro-2-phenyl-4-quinazolinyloxy)-N,N-dipropylpropanamide] registered an IC50 in experiment [1] of 1.15 nM.

`Cc1nc(-c2ccccc2)nc(OCC(=O)N2CC(C)CC(C)C2)c1C` (stereo not shown) [Example 170, 3,5-dimethyl-1-(5,6-dimethyl-2-phenyl-4-pyrimidinyloxy)acetylpiperidine]: the IC50 in experiment [1] was found to be 0.99 nM.

In experiment [1], `Cc1nc(-c2ccccc2)nc(OCC(=O)N2CC(C)OC(C)C2)c1C` (stereo not shown) [Example 171, 2,6-Dimethyl-4-(5,6-dimethyl-2-phenyl-4-pyrimidinyloxy)acetylmorpholine] displayed an IC50 of 1.56 nM. In experiment [2], the ED25 came to 76.4 mg/kg.

`CCN(CC)C(=O)COc1nc(-c2ccccc2)nc(C)c1C` [Example 175]: in experiment [1], the IC50 came out at 1.9 nM.

For `CCN(CC)C(=O)COc1nc(-c2ccccc2)nc2c1CCCC2` [Example 179], in experiment [1], the IC50 was 4.3 nM.

The molecule `CN(C(=O)COc1nc(-c2ccccc2)nc2c1CCCC2)c1ccccc1` [Example 180] yielded an IC50 in experiment [1] of 1.65 nM.

`CN(C(=O)COc1nc(-c2ccc(Cl)cc2)nc2c1CCCC2)c1ccccc1` [Example 181] returned an IC50 in experiment [1] of 1.61 nM.

The molecule `CCCN(C(=O)COc1nc(-c2ccccc2)nc2c1CCCC2)c1ccccc1` [Example 182] displayed an IC50 in experiment [1] of 4.57 nM.

Consider `O=C(COc1nc(-c2ccccc2)nc2c1CCCC2)Nc1ccc(F)cc1` [Example 183], for which, in experiment [1], the half-inhibitory concentration (IC50) was 8.75 nM.

Consider `CN(C(=O)COc1nc(-c2ccccc2)nc2c1CCCC2)c1ccc(F)cc1` [Example 184], for which the IC50 in experiment [1] was determined as 0.82 nM.

For `CN(C(=O)COc1nc(-c2ccccc2)nc2c1CCCC2)c1cccc(Cl)c1` [Example 187], in experiment [1], the IC50 was found to be 9.71 nM.

Molecule `CN(Cc1ccccc1)C(=O)COc1nc(-c2ccccc2)nc2c1CCCC2` [Example 188] registered an IC50 in experiment [1] of 5.24 nM.

For `Cc1nc(-c2ccccc2)nc(OCC(=O)N(CC2CC2)c2ccccc2)c1C` [Example 190, N-cyclopropylmethyl-2-(5,6-dimethyl-2-phenyl-4-pyrimidinyloxy)-N-phenylacetamide], the IC50 in experiment [1] was 4 nM.

With `CC1CN(C(=O)COc2nc(-c3ccc(Cl)cc3)nc3c2CCCC3)CC(C)O1` (stereo not shown) [Example 195, 4-[2-(4-Chlorophenyl)-5,6,7,8-tetrahydro-4-quinazolinyloxy] acetyl-2,6-dimethylmorpholine], in experiment [1], the IC50 is 2 nM.
